Test results reported in patent US20200262869A1, “PEPTIDE ANTIBIOTIC COMPLEXES AND METHODS OF USE THEREOF” (GENENTECH, INC., priority 2017, published 2020).
Converted amounts (≈) assume the structure as drawn. Where two headings read alike, the source gives them in different places.

Tests used:
[1] = tested on: K. pneumoniae strain ATCC 43816; assay: Neutropenic thigh infection model in mice; format: in vivo; conditions: 5 mg/kg subcutaneously BID at 2 and 11 h, 20 h post infection
Description: (§1) CD1 mice (Charles River Laboratories) were rendered neutropenic by 2 intraperitoneal injections of Cytoxan (Baxter Health Care Corporation) at 150 mg/kg on Day -5 and 100 mg/kg on Day -2. On day 0, 50 ul log-phase grown bacteria, K. pneumoniae (ATCC 43816) 1×10^5 CFU/mouse, E. coli (ATCC 25922) 1×10^5 CFU/mouse, P. aeruginosa (ATCC 27853) 1×10^6 CFU/mouse, or A. baumannii (ATCC 17978) 1×10^5 CFU/mouse, were injected into the mouse thigh muscle. At 2 and 11 hours post infection, […] was given at indicated dose subcutaneously. At 20 hours post infection, CFU was determined in the thigh muscle through serial dilutions.

[2] = tested on: E. coli strain ATCC 25922; assay: Neutropenic thigh infection model in mice; format: in vivo; conditions: 1 mg/kg subcutaneously BID at 2 and 11 h, 20 h post infection
Description: as §1

P. aeruginosa 27853 = assay: Neutropenic thigh infection model in mice; format: in vivo; conditions: required a higher concentration of antibiotic; subcutaneous BID
Description: as §1

A. baumannii 17978 = assay: Neutropenic thigh infection model in mice; format: in vivo; conditions: required a higher concentration of antibiotic; subcutaneous BID
Description: as §1

[3] = tested on: MDR K. pneumoniae CDC 0106; assay: MIC against MDR clinical isolate; format: cell-based; conditions: Klebsiella pneumoniae; MDR K. pneumoniae CDC 0106; read-out: MIC
Description: Minimum Inhibitory Concentration (MIC). MICs were determined by performing two-fold serial dilutions of compound in Mueller Hinton II cation-adjusted broth to a final volume of 0.1 m1 in round-bottom 96-well assay plates (Corning Life Sciences No 3788). Each well was inoculated with 5×10^5 CFU/ml and incubated at 37° C. without agitation for 18 hours. Plates were scored by eye, and the lowest compound concentration preventing visible growth was determined to be the MIC.

E. coli ATCC 25922 = assay: Time-kill; format: cell-based; conditions: E. coli ATCC 25922, across a 24 hour period
Description: FIG. 5. […] Colony forming units (CFU) per mL data shown is an average of at least three independent experiments with error bars representing the SD.

[4] = target: T1, full length recombinant LepB from E. coli (Escherichia coli, UniProt P00803); assay: LepB kinetic enzyme assay (fluorogenic peptide substrate); format: biochemical
T1 construct: 500 pM full length recombinant LepB from E. coli
Description: A 20 μL reaction in PBS (pH 7.4) containing 0.1% Triton X-100 was initiated by adding 500 pM full length recombinant LepB from E. coli to a 384-well polypropylene assay plate (Thermo Scientific) containing indicated concentration of G0775 and 10 uM fluorogenic peptide substrate Dabcyl-DAP-PAKAAE-Edans (SEQ ID NO: 6) (GL Biochem, Boston, Mass.). Substrate cleavage separates the Dabcyl quencher from the Edans fluorophore, resulting in 490 nm fluorescence (340 nm excitation). The reaction was read kinetically using a pherastar plate reader (BMG Labtech), and curves were fit to a 2-step irreversible binding model using Dynafit software (BioKin Ltd.) to determine Kinact/KI binding constants.

For `Cc1nc(-c2ccc(C(C)(C)C)cc2)ncc1C(=O)NC(CCN)C(=O)N(C)C1C(=O)NC(C)C(=O)NC(C(=O)NCC#N)Cc2ccc(OCCN)c(c2)-c2cc1ccc2OCCN` (stereo not shown) [G0775], the “decrease in CFU (bactericidal activity)” value [1] was over 2 log, the “decrease in CFU (bactericidal activity)” value [2] was over 2 log and the “efficacy in neutropenic thigh model” value (P. aeruginosa 27853) was “efficacious”. For the same compound, the “efficacy in neutropenic thigh model” value (A. baumannii 17978) was “efficacious”, the MIC [3] was 0.5 µg/mL (≈ 0.562 µM) and the “reduction of the number of viable bacteria (time-dependent killing)” value (E. coli ATCC 25922) was “over 6 orders of magnitude”. For the same compound, the kinact/KI ([4]; full-length LepB embedded in a detergent micelle) was 1.59e+06 M⁻¹ s⁻¹, the Ki ([4]; full-length LepB embedded in a detergent micelle, read-out: KI (prechemistry binding)) was 0.44 nM and the kinact ([4]; read-out: kinact (irreversible inactivation)) was 0.0007 s⁻¹. It also gave a kinact ([4]; three independent experiments, read-out: Kinact) of 0.0007 ± 0.0002 s⁻¹.
